Laboratory results from patent US7695741B2, “Topical formulation for prevention and treatment of acne” (SK Chemicals Co., Ltd., priority 2002, dated 2010).
Marks after values point to notes of the source that are not given here.

Tests used:
mouse ear edema = experiment: Balb.c ear edema test; assay type: in vivo, Balb.c mouse; conditions: 0.3 mg/ear topically at 15 min and 6 hr after induction; 24 hr
Protocol: To examine anti-inflammatory effect of the extracts, irritation-inducing substances, 5.0% benzalkonium chloride, 2.5% coroton oil and 3000 iu/g retinoic acid (negative control) were dissolved in 70% ethanol solution and its 0.3 mg/ear was topically applied to mouse ear (6 mice per group) in order to induce edema. At 15 min and 6 hr after induction of edema, respectively, each of the extract and controls (0.3 mg/ear) was topically applied to mouse ear. After 24 hr of application of irritation-inducing substances, the applied portion of the mouse was cut off with a punch and its weight was weighted. The edema extent was evaluated based on the mean value from the measurements with micrometer.
Inhibitory rate (%)=[(A−B)/A]×100 Formula 4
A: mean value of ear thickness of control group (ear thickness after treatment of negative control−ear thickness with no treatment)
B: ear thickness of sample group (ear thickness after treatment of sample−ear thickness with no treatment)

skin of a hairless mouse = experiment: First screening for promoting keratolysis (silver acetate blackened skin, closed patch); assay type: in vivo; set-up: key to Discoloration (keratolysis effect): ++: significant discoloration; +: discoloration; ±: slight discoloration; −: no change; conditions: for Appearance of Exfoliation: hairless mouse, closed patch about 24 hr; for Discoloration (keratolysis effect): positive control 2 wt % (pH 4)
Protocol: All skin cells help to maintain skin homeostasis through suitable metabolic processes by controlling the rate of their proliferation and exfoliation. Therefore, the reproduction rate of skin could be indirectly examined by observing the exfoliation rate of stratum corneum that can be generally measured by evaluating the level of skin discoloration associated with keratolysis. In evaluating the efficacy of extracts, the first screening for promoting keratolysis was performed using hairless mouse. Each extract sample was prepared by dissolving the dried powder extract prepared in Example 1 in 70% ethanol and the positive controls including glycolic acid or lactic acid were prepared as described above. The experiments were carried out as follows: The skin of a hairless mouse was washed with 10% SDS for 30 min and then allowed its skin to dry for experiment. 0.4 ml of aqueous silver acetate liquid was covered with a hill top chamber and closed patch was performed for 30 min, followed by infiltrating with a photo-developing solution to blacken a portion of patch with silver acetate. The closed patch was further performed with each extract sample on the blackened portion and removed after about 24 hr. The coloring index before application of extract and discoloring index at 24 hr after removal were measured by means of calorimeter (The higher the discoloring index, the higher is the keratolysis effect)

carrageenan foot edema = experiment: Carrageenan foot edema method using SD rat; assay type: in vivo; conditions: 30 mg/kg intraperitoneally, 1 hr before carrageenan; foot volume change at 4 hr
Protocol: The extracts from Cavalia gladiata, Biota orientalis, Coptis chinensis and their mixture prepared in Example 1 were intraperitoneally administered, respectively, in an amount of 30 mg/kg. After 1 hr, 0.5 ml of 0.1% carrageenan solution was injected into the sole of a back foot to induce inflammation. The volume change of rat foot at the time of injection of carrageenan and 4-hr after administration was measured and the Inhibitory rate was calculated according to the Formula 3. Inhibitory rate (%)=[(1−ΔVtreated group)/ΔVcontrol group)]×100 (ΔV: volume change of foot) Formula 3

[1] = target: T1, Testosterone 5α-Reductase (Rattus norvegicus, UniProt P24008); experiment: Inhibitory effect on testosterone 5α-reductase activity (rat liver enzyme, (3H) testosterone, TLC); assay type: biochemical, Sprague-Dawley rat
T1 construct: from tissue; host or cells: liver of 8-week-old female Sprague-Dawley rat (homogenate, sonicated and centrifuged)
T1 sequence (P24008 1-259): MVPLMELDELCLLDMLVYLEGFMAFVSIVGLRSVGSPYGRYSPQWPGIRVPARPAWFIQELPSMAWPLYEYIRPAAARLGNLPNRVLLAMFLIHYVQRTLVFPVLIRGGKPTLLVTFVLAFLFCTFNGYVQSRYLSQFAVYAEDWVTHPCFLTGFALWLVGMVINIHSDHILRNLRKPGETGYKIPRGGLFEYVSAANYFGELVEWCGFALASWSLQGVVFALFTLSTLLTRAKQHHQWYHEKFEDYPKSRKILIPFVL
Protocol: Testosterone 5α-Reductase, used to examine the inhibitory effect of the extract obtained from oriental medicines against testosterone 5α-reductase activity, was prepared at a temperature of below 4° C. The white female Sprague-Dawley rat aged at 8 weeks was anesthetized by inhalation of diethylether and sacrificed by the disjunction of cervicals, followed by liver ablation. The extracted liver was washed three times with PBS (phosphate buffered saline) and 3 volumes of ice-cold buffer (50 mM sodium phosphate, pH 6.8, 0.25 M sucrose, 1 mM dithiothreitol) were added, followed by pulverizing with a cell homogenizer (Polytron Homogenizer), obtaining homogenized suspension. […] The protein quantification of the protein suspension obtained thus was performed according to Bradford method and its accurate value was determined with ELISA reader.
For evaluating the inhibitory effect on the activity of 5α-Reductase, to 50 μl of the reaction solution, 10 μl of ethanol solution of inhibitor or tested sample (70% ethanol solution containing extract from oriental medicine) were added and the protein suspension was added to the volume of 100 μl of the reaction solution. […] The area exposed was measured with densitometer and the inhibitory rate against testosterone 5α-Reductase was calculated as shown in the below formula 1. […]

comedo of rabbit ear [2] = experiment: Alleviatory effect on comedo using ear of white rabbit, observation with naked eye; assay type: in vivo, New Zealand white male rabbits
Text: (§1) Test system—This test has been generally adopted for evaluation of treatment. New Zealand white male rabbits aged at 4-month and weighed 2-3 kg were purchased and mitigated for 1 week, of which only the healthy ones determined with naked eye were selected.
(§2) Test materials—For test groups, the powderized extracts (0.1% (w/v)) from Cavalia gladiata, Biota orientalis, Coptis chinensis and their mixture dissolved in 70% ethanol solution were used, respectively, 1.0% azelaic acid dissolved in 70% ethanol solution was used as a positive control and 70% ethanol solution per se was used as negative control.
(§3) Classification of test systems—Isopropyl myriatate (Sigma) was daily applied to both ears of rabbit for 2 weeks for inducing comedo. Rabbits observed with naked eye to show typical comedo were selected and classified to groups each of which was comprised of 6 rabbits in consideration of comedo severity.
(§4) Administration method of test materials—Test groups and a positive control to the right ear and a negative control to the left ear of rabbit were administered once daily for 2 weeks in the amount of 0.5 ml and spread with a swab. After 2 weeks, both ears were evaluated.
The standards for determination with naked eye were classified to 7 grades, 0, 0.5, 1.0, 1.5, 2.0, 2.5 and 3.0. The area of comedo was evaluated. The period for treatment of comedo was 2-week and the aggravation and alleviation of comedo were determined.
• 0: no difference compared to control • […]: symptoms between 0 and 1 • 1: showing congestion, bleeding of capillary tube, slight cornification and enlargement of hair follicle • 1.5: symptoms between 1 and 2 • 2: medium severity of cornification and enlargement of hair follicle • 2.5: symptoms between 2 and 3 • 3: excessive severity of cornification and enlargement of hair follicle, showing typical comedo

comedo of rabbit ear [3] = experiment: Alleviatory effect on comedo using ear of white rabbit, observation with image analysis; assay type: in vivo, New Zealand white male rabbits
Text: as §1, §2, §3, §4
After the observation with naked eye, each test group was euthanized with sodium pentobarbital and its both ears were cut out, after which their tissues at basement were cleaved in a size of about 2.5×1.5 cm and immersed in warm water (50° C.) for 3 min. The epiderms from the tissues were detached, placed with inner side upward on slide glass, fixed and dried at room temperature.

Propionibacterium acnes = experiment: Antimicrobial activity against acne pathogen (agar medium, anaerobic culture, colony count); assay type: cell-based; set-up: key: −: inhibition of growth; ±: pseudo-positive; +: positive
Protocol: The examination on antimicrobial activity of three extracts (Cavalia gladiata, Biota orientalis and Coptis chinensis) was performed in such a manner that an acne pathogen (Propionibacterium acnes) that was cultured in liquid medium was treated with a predetermined concentration of extract powderized by freeze drying and then cultured in an anaerobic incubator, followed by measuring a minimum inhibitory concentration (MIC) against an acne pathogen (Propionibacterium acnes). The overall procedure is as follows:
The acne pathogen (Propionibacterium acnes) was cultured at 37° C. for 3 days in reinforced clostridial medium and then continued to subculture until showing significant activity.
First, in a liquid culture method, 10 ml of reinforced clostridial medium were introduced to screw cap tube and sterilized for 20 min at 121° C. After sterilization, 0.5 ml of liquid paraffin sterilized separately was added dropwise on the liquid medium to protect the contact with oxygen. After cooling the medium, the microbe was inoculated into the medium and cultured at 37° C. for above 72 hr.
Second, in a solid culture method, 10 ml of the solid medium prepared by adding 0.1% agar to reinforced clostridial medium was introduced to a screw cap tube and sterilized at 121° C. for 20 min. After cooling the medium, the microbe was inoculated into the medium by use of inoculating platinum loop and stab-cultured for 72 hr at 37° C.
Third, in a plate culture method, the agar medium prepared and sterilized as a solid culture method was poured to a plate and cooled. After cooling and solidifying completely, the plate was placed in an anaerobic jar, 10 ml of water were introduced to complex gas (CO2 10.5%, H2 9.6%, N2 79.9%) and the lid was kept covered, followed by culturing at 37° C. for 72 hr.
1 ml of the medium containing Propionibacterium acnes subjected to a sufficient subculture was taken and inoculated into a medium containing 9 ml of reinforced clostridial medium, thereby obtaining 10-fold diluted culture medium. The same procedure was repeated to obtain between 10^−1 and […] diluted culture media. Each of the homogeneous solutions containing Cavalia gladiata, Biota orientalis, Coptis chinensis and at least two combinations thereof was well dissolved in 10 ml of 70% ethanol to obtain 2-fold diluted solution. The solution was filtered for removing bacteria through 0.2 μm membrane filter. […] 1 ml of the diluted medium (medium of Propionibacterium acnes subject to subculture diluted to 10^−1-10^−5) was dispensed in a petri dish and each agar medium having certain concentration was dispensed, followed by mixing and keeping it to stand for solidifying the agar medium. After solidification, the medium was placed in an anaerobic jar that in turn was equipped with gas-pak. Following culturing at 37° C. for 3 days, the number of colonies formed were counted and compared to that of a control group, and the inhibitory rate was calculated based on the results.

[4] = extracts 0.1% (w/v), azelaic acid 1.0%, 2 weeks

Structure (SMILES): CC1(C)[C@@H](O[C@H]2O[C@H](C(=O)O)[C@@H](O)[C@H](O)[C@H]2O[C@@H]2O[C@H](C(=O)O)[C@@H](O)[C@H](O)[C@H]2O)CC[C@]2(C)[C@H]3C(=O)C=C4[C@@H]5C[C@@](C)(C(=O)O)CC[C@]5(C)CC[C@@]4(C)[C@]3(C)CC[C@@H]12 [Glycyrrhizinic acid]
- Inhibitory rate on ear thickness (%) (mouse ear edema): 42.7%
- Inhibitory rate on ear weight (%) (mouse ear edema): 38.4%

Structure (SMILES): O=C(O)CO [Glycolic acid]
- Appearance of Exfoliation (skin of a hairless mouse): Heterogeneous
- Discoloration (keratolysis effect) (skin of a hairless mouse): 2 wt % (pH 4) ++

Structure (SMILES): CC(=O)Oc1ccccc1C(=O)O [Aspirin]
- Inhibitory rate (%) of foot edema (carrageenan foot edema): 35.2 ± 6%

Structure (SMILES): COc1ccc2c(c1)c(CC(=O)O)c(C)n2C(=O)c1ccc(Cl)cc1 [Indomethacin]
- Inhibitory rate on ear thickness (%) (mouse ear edema): 52.0%
- Inhibitory rate on ear weight (%) (mouse ear edema): 45.6%

Structure (SMILES): O=C(O)CCCCCCCC(=O)O [Azelaic acid]
- Inhibitory rate against 5α-reductase (%) ([1]; Conc. 0.1 %): 19.8%
- Inhibitory rate against 5α-reductase (%) ([1]; Conc. 1.0 %): 100.0%
- Inhibitory rate (%), naked eye comedo grade (comedo of rabbit ear [2]; [4]): 28.5%
- After administration (right ear), naked eye comedo grade (comedo of rabbit ear [2]; grades 0-3, extracts 0.1% (w/v), azelaic acid 1.0%, 0.5 ml once daily for 2 weeks): 1.13 ± 0.14
- Before administration (left ear), naked eye comedo grade (comedo of rabbit ear [2]; grades 0-3, left ear): 1.58 ± 0.12
- Inhibitory rate (%), area of comedo/number (comedo of rabbit ear [3]; [4]): 40.0%
- After administration (right ear) Area of comedo/number (cm^2) (comedo of rabbit ear [3]; image analysis, extracts 0.1% (w/v), azelaic acid 1.0%, once daily for 2 weeks): 0.18 ± 0.02 cm^2
- Before administration (left ear) Area of comedo/number (cm^2) (comedo of rabbit ear [3]; image analysis, left ear): 0.30 ± 0.02 cm^2
- comedo decreasing ratio (area/count ratio) (comedo of rabbit ear [3]; text restating Table 11): 40.0%

Structure (SMILES): O=C(OOC(=O)c1ccccc1)c1ccccc1 [Benzoylperoxide]
- MIC to P. acnes (growth at concentration of extract) (Propionibacterium acnes; Concentration of extract 0.005 %): +
- MIC to P. acnes (growth at concentration of extract) (Propionibacterium acnes; Concentration of extract 0.01 %): +
- MIC to P. acnes (growth at concentration of extract) (Propionibacterium acnes; Concentration of extract 0.03 %): +
- MIC to P. acnes (growth at concentration of extract) (Propionibacterium acnes; Concentration of extract 0.05 %): +***
- MIC to P. acnes (growth at concentration of extract) (Propionibacterium acnes; Concentration of extract 0.10 %): ±**
- MIC to P. acnes (growth at concentration of extract) (Propionibacterium acnes; Concentration of extract 0.50 %): −

Structure (SMILES): CC(O)C(=O)O (stereo not drawn) [Lactic acid]
- Appearance of Exfoliation (skin of a hairless mouse): Heterogeneous
- Discoloration (keratolysis effect) (skin of a hairless mouse): 2 wt % (pH 4) ++
